Measurements published in the NIST ThermoML archive (doi:10.1016/j.jct.2009.12.001).

Assay: osmotic coefficient (dimensionless); mn = molality of the nth substance listed, in mol/kg
Details: 323.15 K, Liquid, Vapor Pressure Osmometer

CCOS(=O)(=O)[O-].CC[n+]1ccccc1 [1-ethylpyridinium ethyl sulfate] + CC(C)O
Details	osmotic coefficient
m1 = 0.0578	0.948
m1 = 0.1042	0.871
m1 = 0.2018	0.772
m1 = 0.3112	0.695
m1 = 0.3991	0.664
m1 = 0.5034	0.607
m1 = 0.6891	0.564
m1 = 0.9837	0.533
m1 = 1.287	0.506
m1 = 1.684	0.49
m1 = 2.075	0.47
m1 = 2.514	0.449
m1 = 2.915	0.432
m1 = 3.338	0.417

CCOS(=O)(=O)[O-].CC[n+]1ccccc1 [1-ethylpyridinium ethyl sulfate] + CCCCCO
Details	osmotic coefficient
m1 = 0.0539	0.761
m1 = 0.0802	0.679
m1 = 0.1082	0.605
m1 = 0.2024	0.521
m1 = 0.3151	0.465
m1 = 0.4053	0.435
m1 = 0.511	0.416
m1 = 0.7996	0.376
m1 = 1.105	0.359
m1 = 1.414	0.355
m1 = 1.719	0.347
m1 = 2.23	0.335
m1 = 2.724	0.332
m1 = 3.206	0.33

CCOS(=O)(=O)[O-].CC[n+]1ccccc1 [1-ethylpyridinium ethyl sulfate] + CCCO
Details	osmotic coefficient
m1 = 0.0584	0.853
m1 = 0.073	0.824
m1 = 0.1074	0.768
m1 = 0.2108	0.684
m1 = 0.3057	0.635
m1 = 0.4128	0.603
m1 = 0.5105	0.586
m1 = 0.7918	0.561
m1 = 1.108	0.547
m1 = 1.347	0.54
m1 = 1.697	0.528
m1 = 2.217	0.505
m1 = 2.727	0.487
m1 = 3.22	0.474

CCOS(=O)(=O)[O-].CC[n+]1ccccc1 [1-ethylpyridinium ethyl sulfate] + CCC(C)O
Details	osmotic coefficient
m1 = 0.0597	0.82
m1 = 0.0791	0.784
m1 = 0.1061	0.759
m1 = 0.1993	0.665
m1 = 0.313	0.575
m1 = 0.4056	0.515
m1 = 0.5166	0.482
m1 = 0.7016	0.452
m1 = 1.006	0.429
m1 = 1.291	0.421
m1 = 1.73	0.406
m1 = 2.104	0.392
m1 = 2.512	0.383
m1 = 2.915	0.378
m1 = 3.294	0.374

CCOS(=O)(=O)[O-].CC[n+]1ccccc1 [1-ethylpyridinium ethyl sulfate] + CCCCO
Details	osmotic coefficient
m1 = 0.0564	0.758
m1 = 0.0836	0.694
m1 = 0.1146	0.652
m1 = 0.2084	0.578
m1 = 0.2995	0.536
m1 = 0.3996	0.508
m1 = 0.5015	0.495
m1 = 0.7046	0.467
m1 = 0.9934	0.44
m1 = 1.289	0.429
m1 = 1.688	0.418
m1 = 2.094	0.402
m1 = 2.493	0.388
m1 = 2.886	0.38
m1 = 3.301	0.374
